Source: US20230057130A1, “FORMULATIONS OF 19-NOR C3,3-DISUBSTITUTED C21-N-PYRAZOLYL STEROID AND METHODS OF USE THEREOF” (priority 2020, published 2023)
In brackets after ≈: the same amount, converted by molar mass. Several values for one entry are separate records, joined by “and”; a condition that tells them apart may be missing. Identical values can stand only once. Like-named read-outs stand apart in the source and are kept apart here.

Assays:
[1] = Solubility of the compound of formula (I) in aqueous media; format: physicochemical
From the text: The compound of formula (I) belongs in the high permeability, poor solubility drug classification (BCS 2) described in the Biopharmaceutics Classification System (BCS). In the improved widely accepted Developability Classification System (DCS) discussed by Butler and Dressman, the high permeability low solubility category is further divided into two classifications. Specifically, the ratio of the dose to the solubility of the drug in FaSSIF can be used to predict the extent of human absorption. Class 2a describes compounds that have good permeability and poor solubility with a smaller dose to solubility ratio. Class 2b describes compounds that have a higher dose to solubility ratio and likely will be incompletely absorbed unless the drug is formulated in an already solubilized form, and therefore might present a major challenge to the formulator. […] That is, even for a dose of 10 mg about only 1.2% of the dose of the drug may dissolve in a glass of water or FaSSIF. For Class 2b compounds the system predicts that particle reduction should have no impact on bioavailability. Martinez and Amidon offer: “In the case of solubility-limited absorption particle size exerts minimal effect on the fraction of drug absorbed. In this situation, fraction of drug absorbed can only be improved by enhancing drug solubility (e.g., via inclusion of surfactants in the drug formulation.) Conversely particle size exerts its greatest effect when solubility is not a problem.” (Martinez and Amidon; J. Clin. Pharmacol.; 2002; 42; 620-643). In light of the very large […] for the compound of formula (I), oral absorption of the compound of formula (I) is solubility limited, and reduction of particle size should not affect its bioavailability.

[2] = Particle size distribution by laser diffraction (Malvern Mastersizer 2000); format: physicochemical; details: for Particle Size D10 / Particle Size D50 / Particle Size D90: laser diffraction
From the text: As used herein, the term “particle size” or “particle size distribution (PSD)” when referring to the compound of formula (I) is a list of values that defines the relative amount, typically by mass or volume, of particles present according to size. The distribution data may be reported as cumulative distributions and/or as density distributions by volume or mass such as D(v, 0.1), D(v, 0.5) and D(v, 0.9). In various embodiments, the particle size of a compound of formula (I) may be measured using laser diffraction techniques (e.g., dispersing particles in a sample and illuminating the sample in a collimated laser-beam by scattering light over a range of angles). The large particles generate a high scattering intensity at relatively narrow angles to the incident beam, while the smaller particles produce a lower intensity signal but at much wider angles. Using an array of detectors, laser-diffraction analyzers record the pattern of scattered light produced by the sample. With the application of an appropriate model of light behavior the particle-size distribution of the sample can be determined from the scattering data, via a deconvolution step.
The particle size distribution of Compound 1 was measured using a laser diffraction method. A sample of Compound 1 was either dispersed in water or wetted and dispersed in 0.2% w/v Tween 80 in water to a final concentration spanning approximately 2.5 to 60 mg/mL. Using a Malvern Mastersizer 2000 with a Hydro 2000S sample dispersion unit the obscuration was adjusted to between 10 and 30%. The stir speed was adjusted to 2250-2500 rpm, pre-measurement delay to approximately 30 s, sample measurement time to around 10-15 s, background measurement time to around 10-15 s and the particle shape assumed to be irregular. The samples were at a concentration between 0.0032-0.0044% vol and had specific surface area between 1.65 and 2.10 m^2/g, a surface weighted mean between 2.87 and 3.64 μm, and a volume weighed mean between 3.62 and 4.67 μm. The measurements were obtained using the Mie scattering model (material refractive index=1.520, dispersant refractive index=1.330, absorption=0.001 or 0.1) with normal sensitivity.

[3] = Pharmacokinetic profile of Form C of Compound 1 (micronized and un-micronized) in rat, oral gavage; format: in vivo; details: male Sprague-Dawley rats, oral gavage 15 mg/kg; for AUClast / Cmax / Tmax: suspended in 2% aqueous PVP-VA, 15 mg/kg
Description: Two groups, each with three male Sprague-Dawley rats, received an oral gavage dose of Compound 1 (un-micronized Form C or micronized Form C) suspended in 2% aqueous PVP-VA at a concentration and volume intended to achieve a target dose level of 15 mg/kg.
Serial blood samples were collected from each animal at 0.25, 0.5, 1, 2, 4, 6, 8 and 24 hours after dosing. Blood samples, which were collected into tubes containing K2EDTA, were processed for plasma. Plasma samples were analyzed for Compound 1 by LC-MS/MS. Non-compartmental pharmacokinetic parameter estimates were calculated from the plasma concentration-time data for each animal. […] In Table 8 the subscripts to AUC last and inf refer to that AUC to the last sampling time point and extrapolated to infinite time, respectively.

[4] = lot used for 8 kg blend batch, 20 mg dose strength
[5] = lot used for 12 kg blend batch, 30 mg dose strength
[6] = lot used for 34.7 kg blend batch, 20 mg dose strength
[7] = lot used for 52 kg blend batch, 30 mg dose strength

Structure (SMILES)	Particle Size D10 [2]	Particle Size D50 [2]	Particle Size D90 [2]	other results
C[C@@]1(O)CC[C@H]2[C@H](CC[C@@H]3[C@@H]2CC[C@]2(C)[C@@H](C(=O)Cn4cc(C#N)cn4)CC[C@@H]32)C1 [Compound 1, 1-(2-((3R,5R,8R,9R,10S,13S,14S,17S)-3-hydroxy-3,13-dimethylhexadecahydro-1H-cyclopenta[a]phenanthren-17-yl)-2-oxoethyl)-1H-pyrazole-4-carbonitrile]	–	–	–	solubility in aqueous media [1]: practically insoluble; ratio of the dose to solubility in FaSSIF ([1]; 10 mg dose): greater than 10,000; ratio of the dose to solubility in FaSSIF ([1]; 20 mg dose): > 20,000; ratio of the dose to solubility in FaSSIF ([1]; 30 mg dose): > 30,000; ratio of the dose to solubility in FaSSIF ([1]; 90 mg dose): > 90,000; ratio of the dose to solubility in FaSSIF ([1]; 100 mg dose): > 100,000; part of the dose that may dissolve in a glass of water or FaSSIF ([1]; dose of 10 mg): ~1.2%; Biopharmaceutics Classification System (BCS) classification ([1]; high permeability, poor solubility): BCS 2; solubility ([1]; water): 0.8 to 3 µg/mL (≈ 1.95 to 7.32 µM)
C[C@@]1(O)CC[C@H]2[C@H](CC[C@@H]3[C@@H]2CC[C@]2(C)[C@@H](C(=O)Cn4cc(C#N)cn4)CC[C@@H]32)C1 [Micronized Form A of Compound 1]	1.5 μm	4.2 μm	11.1 μm	–
C[C@@]1(O)CC[C@H]2[C@H](CC[C@@H]3[C@@H]2CC[C@]2(C)[C@@H](C(=O)Cn4cc(C#N)cn4)CC[C@@H]32)C1 [Micronized Form C of Compound 1]	–	3.5 μm and 3.2 μm and 4.1 μm and 3.7 μm	6.6 μm and 6.1 μm and 8.0 μm and 8.9 μm	AUClast [3]: 3647 ng·h/mL; Cmax [3]: 308 ng/mL; Tmax [3]: 6.00 h; Particle Size Distribution D10 [2, 4]: 1.7; Particle Size Distribution D50 [2, 4]: 3.2; Particle Size Distribution D90 [2, 4]: 6.1; Particle Size Distribution D10 [2, 5]: 1.7; Particle Size Distribution D50 [2, 5]: 3.2; Particle Size Distribution D90 [2, 5]: 6.1; Particle Size Distribution D10 [2, 6]: 1.8; Particle Size Distribution D50 [2, 6]: 3.3; Particle Size Distribution D90 [2, 6]: 6.5; Particle Size Distribution D10 [2, 7]: 2.1; Particle Size Distribution D50 [2, 7]: 4.1; Particle Size Distribution D90 [2, 7]: 8.0
C[C@@]1(O)CC[C@H]2[C@H](CC[C@@H]3[C@@H]2CC[C@]2(C)[C@@H](C(=O)Cn4cc(C#N)cn4)CC[C@@H]32)C1 [Micronized Form C of Compound 1a]	0.9 μm	2.4 μm	6.1 μm	–
C[C@@]1(O)CC[C@H]2[C@H](CC[C@@H]3[C@@H]2CC[C@]2(C)[C@@H](C(=O)Cn4cc(C#N)cn4)CC[C@@H]32)C1 [Micronized Form C of Compound 1b]	0.8 μm	2.1 μm	5.2 μm	–
C[C@@]1(O)CC[C@H]2[C@H](CC[C@@H]3[C@@H]2CC[C@]2(C)[C@@H](C(=O)Cn4cc(C#N)cn4)CC[C@@H]32)C1 [Micronized Form C of Compound 1c]	1.1 μm	2.7 μm	5.4 μm	–
C[C@@]1(O)CC[C@H]2[C@H](CC[C@@H]3[C@@H]2CC[C@]2(C)[C@@H](C(=O)Cn4cc(C#N)cn4)CC[C@@H]32)C1 [Micronized Form C of Compound 1d]	1.0 μm	2.4 μm	4.6 μm	–
C[C@@]1(O)CC[C@H]2[C@H](CC[C@@H]3[C@@H]2CC[C@]2(C)[C@@H](C(=O)Cn4cc(C#N)cn4)CC[C@@H]32)C1 [Un-micronized Form C of Compound 1]	–	–	–	AUClast [3]: 979 ng·h/mL; Cmax [3]: 83.6 ng/mL; Tmax ([3]; male, Sprague-Dawley, rat, plasma, po, read-out: Tmax): 6.67 h; AUC(0-inf) ([3]; rat, plasma, extrapolated to infinite time): 854 ng·h/mL
C[C@@]1(O)CC[C@H]2[C@H](CC[C@@H]3[C@@H]2CC[C@]2(C)[C@@H](C(=O)Cn4cc(C#N)cn4)CC[C@@H]32)C1 [Un-micronized Form C of Compound 1a]	3.1 μm	11.8 μm	27.1 μm	–
C[C@@]1(O)CC[C@H]2[C@H](CC[C@@H]3[C@@H]2CC[C@]2(C)[C@@H](C(=O)Cn4cc(C#N)cn4)CC[C@@H]32)C1 [Un-micronized Form C of Compound 1b]	3.2 μm	14.7 μm	33.6 μm	–
C[C@@]1(O)CC[C@H]2[C@H](CC[C@@H]3[C@@H]2CC[C@]2(C)[C@@H](C(=O)Cn4cc(C#N)cn4)CC[C@@H]32)C1 [Un-micronized Form C of Compound 1c]	3.6 μm	16.0 μm	35.5 μm	–
C[C@@]1(O)CC[C@H]2[C@H](CC[C@@H]3[C@@H]2CC[C@]2(C)[C@@H](C(=O)Cn4cc(C#N)cn4)CC[C@@H]32)C1 [Un-micronized Form C of Compound 1d]	5.6 μm	16.2 μm	37.7 μm	–
